Measured values from US20230416205A1, “COMPOUNDS, COMPOSITIONS, AND METHODS” (Denali Therapeutics Inc, priority 2020, published 2023).
Where two headings read alike, the source gives them in different places.

System: NLRP3
Assay: IL-1β secretion assay in PMA-differentiated, LPS/nigericin-stimulated THP-1 cells (384-well, ELISA read-out)
Format: cell-based, human
Method: Compounds as provided herein were tested in the following assay. Cell culture medium employed contained RPMI 1640 medium (89%), FBS (10%), Pen/Strep (1%), and 2-mercaptoethanol (0.05 mM). Freezing medium was made up of 90% FBS and 10% DMSO. THP-1 cells were removed from the liquid nitrogen and placed into a 37° C. water bath to thaw, until signs of ice dissipated. The cells were then added to 9 mL of warm cell culture medium and centrifuged for 5 minutes at 1000 rpm. The supernatant was discarded, and the cells were resuspended in new cell culture medium. THP-1 cells were then split and cultured in the cell culture medium, being passaged every 2-3 days with the cell density will be maintained between 5×10^5 and 1.5×10^6 viable cells/mL.
To freeze, cells were resuspended with fresh freezing medium, adjusting the cell density to 5×10^6 cells/mL. The cell suspension was partitioned into 1 mL aliquots per vial, and the vials were transferred to a −80° C. freezer. After one day at −80° C., the cell vials were transferred to liquid nitrogen freezer for storage.
PMA was dissolved in DMSO to make a stock solution at 5 mg/mL and stored in 10 μl aliquots at −20° C. for single use. PMA is added to normal growth medium. LPS was diluted with 1 mL of water solution to provide a 1 mg/mL stock solution and stored in 15 μl aliquots at −20° C. for single use. Nigericin is diluted in ice cold 100% ethanol to 5 mg/mL (6.7 mM) and stored in 75 μL aliquots at −20° C. for single use. Serum-free media contains RPMI 1640 medium (99%), Pen/Strep (1%), and 2-mercaptoethanol (0.05 mM). The two control conditions used to qualify and normalize test compound dose-response curves were as follows: High Control=25 ng/mL LPS, 5 μM Nigericin, 0.5% DMSO, Low Control=25 ng/mL, LPS, 0.5% DMSO.
THP-1 cells were diluted to provide a suspension at a concentration of 1.0×10^6 cells/mL with the total volume of suspension required to enable the desired number of assay plates. The growth media was supplemented with PMA (5 ng/mL final concentration) and the cells were incubated at 37° C. under a humidified atmosphere of 5% CO2 for 40 h.
All media was carefully aspirated from each culture flask. The cells were washed carefully with 1×DPBS. The cells were then briefly digested with trypsin LE for 5 minutes at 23° C., and immediately resuspended in cell growth media. After resuspension, the cells were centrifuged at 1000 rpm for 3 minutes and the supernatant was discarded. The cells were resuspended in DPBS and once again centrifuged at 1000 rpm for 5 minutes. The supernatant was discarded and the cell pellet was resuspended in serum-free media supplemented with LPS (25 ng/mL final concentration) to enable the distribution of 30K THP-1 cells within 45 μL of media into each well of 384-well PDL-coated plates. The 384-well plates were then incubated at 37° C. under a humidified atmosphere of 5% CO2 for 2 h. Following this period, test compounds were dispensed by Tecan across the desired concentration range with all wells normalized to a final 0.5% DMSO concentration. The plates were then incubated at 37° C. under a humidified atmosphere of 5% CO2 for 1 h. Following this period, 5 μL of the […] was added to each of the appropriate wells and plates were centrifuged at 1000 rpm for 30 seconds. The plates were the immediately reintroduced to the incubator at 37° C. under a humidified atmosphere of 5% CO2 for 2 h. After this time, 35 μL/well of supernatant was collected and transferred into v-bottom plate and centrifuged at 1000 rpm for 1 minute. These supernatant aliquots were analyzed using an IL-Iβ detection kit as described below. If needed, the test samples could be snap frozen and stored at −80° C. until analyzed.
To prepare each ELISA plate, capture antibody (mAb Mt175) was diluted with PBS to a final concentration of 2 μg/mL and then 20 μL of this solution was added to each well of the ELISA plate. Each plate was allowed to incubate overnight at 4° C.

[1] = Homo sapiens, THP-1, IL-1β secretion, PMA-differentiated THP-1 cells, LPS then nigericin stimulation, ELISA read at 450 nm, read-out: Activity
[2] = Homo sapiens, THP-1, Table 4, IL-1β secretion, LPS/nigericin-stimulated THP-1 cells, read-out: IC50
[3] = Table 4, IL-1β secretion, LPS/nigericin-stimulated THP-1 cells, read-out: IC50
[4] = IL-1β secretion, PMA-differentiated THP-1 cells, LPS then nigericin stimulation, ELISA read at 450 nm, read-out: Activity

Row | SMILES | IC50 [1] | IC50 [2] | IC50 [3] | IC50 [4]
1 | O=C(CN1C[C@@]2(C[C@H]2F)c2cc(Br)ccc2C1=O)Nc1ncc(F)cn1 (mixture of isomers) [Example 80, 2-[(2′r,4r)-6-bromo-2′-fluoro-1-oxospiro[3H-isoquinoline-4,1′-cyclopropane]-2-yl]-N-(5-fluoropyrimidin-2-yl)acetamide] | < 10000 nM | 1060 nM | – | –
2 | O=C(CN1C[C@@]2(C[C@@H]2F)c2cc(Br)cc(F)c2C1=O)Nc1ncc(F)cn1 (mixture of isomers) [Example 285, 2-[(2′s,4r)-6-bromo-2′,8-difluoro-1-oxospiro[3H-isoquinoline-4,1′-cyclopropane]-2-yl]-N-(5-fluoropyrimidin-2-yl)acetamide] | < 10000 nM | 165 nM | – | –
3 | O=C(CN1C[C@@]2(C[C@@H]2F)c2cc(Br)ccc2C1=O)Nc1ncc(F)cn1 (single isomer, unassigned) [Example 78] | < 10000 nM | 208 nM | – | –
4 | O=C(CN1C[C@@]2(C[C@@H]2F)c2c(ccc(Br)c2F)C1=O)Nc1ncc(F)cn1 (single isomer, unassigned) [Example 220, 2-[(2′s,4r)-6-bromo-2′,5-difluoro-1-oxospiro[3H-isoquinoline-4,1′-cyclopropane]-2-yl]-N-(5-fluoropyrimidin-2-yl)acetamide] | < 10000 nM | 20 nM | – | –
5 | N#Cc1cnc(NC(=O)CN2C[C@@]3(C[C@@H]3F)c3c(ccc(Br)c3F)C2=O)nc1 (single isomer, unassigned) [Example 221, 2-[(2′s,4r)-6-bromo-2′,5-difluoro-1-oxospiro[3H-isoquinoline-4,1′-cyclopropane]-2-yl]-N-(5-cyanopyrimidin-2-yl)acetamide] | < 10000 nM | 14 nM | – | –
6 | O=C(CN1C[C@@]2(C[C@@H]2F)c2c(ccc(Br)c2F)C1=O)Nc1ncc(Cl)cn1 (single isomer, unassigned) [Example 222, 2-[(2′s,4r)-6-bromo-2′,5-difluoro-1-oxospiro[3H-isoquinoline-4,1′-cyclopropane]-2-yl]-N-(5-chloropyrimidin-2-yl)acetamide] | < 10000 nM | 11 nM | – | –
7 | O=C(CN1C[C@@]2(C[C@@H]2F)c2c(ccc(Cl)c2F)C1=O)Nc1ncc(F)cn1 (single isomer, unassigned) [Example 223, 2-[(2′s,4r)-6-chloro-2′,5-difluoro-1-oxospiro[3H-isoquinoline-4,1′-cyclopropane]-2-yl]-N-(5-fluoropyrimidin-2-yl)acetamide] | < 10000 nM | 55 nM | – | –
8 | O=C(CN1C[C@@]2(C[C@@H]2F)c2c(ccc(Br)c2F)C1=O)Nc1ncccn1 (single isomer, unassigned) [Example 224, 2-[(2′s,4r)-6-bromo-2′,5-difluoro-1-oxospiro[3H-isoquinoline-4,1′-cyclopropane]-2-yl]-N-pyrimidin-2-ylacetamide] | < 10000 nM | 49 nM | – | –
9 | Cc1cnc(NC(=O)CN2C[C@@]3(C[C@@H]3F)c3c(ccc(Br)c3F)C2=O)nc1 (single isomer, unassigned) [Example 225, 2-[(2′s,4r)-6-bromo-2′,5-difluoro-1-oxospiro[3H-isoquinoline-4,1′-cyclopropane]-2-yl]-N-(5-methylpyrimidin-2-yl)acetamide] | < 10000 nM | 19 nM | – | –
10 | O=C(CN1C[C@@]2(C[C@@H]2F)c2c(ccc(Br)c2F)C1=O)Nc1ncc(C(F)(F)F)cn1 (single isomer, unassigned) [Example 226, 2-[(2′s,4r)-6-bromo-2′,5-difluoro-1-oxospiro[3H-isoquinoline-4,1′-cyclopropane]-2-yl]-N-[5-(trifluoromethyl)pyrimidin-2-yl]acetamide] | < 10000 nM | 31 nM | – | –
11 | O=C(CN1C[C@]2(C[C@H]2F)c2c(ccc(Br)c2F)C1=O)Nc1ncccn1 (single isomer, unassigned) [Example 227, 2-[(2′s,4r)-6-bromo-2′,5-difluoro-1-oxospiro[3H-isoquinoline-4,1′-cyclopropane]-2-yl]-N-pyrimidin-2-ylacetamide] | < 10000 nM | 127 nM | – | –
12 | O=C(CN1C[C@@]2(C[C@@H]2F)c2c(ccc(C3CC3)c2F)C1=O)Nc1ncc(F)cn1 (single isomer, unassigned) [Example 228, 2-[(2′s,4r)-6-cyclopropyl-2′,5-difluoro-1-oxospiro[3H-isoquinoline-4,1′-cyclopropane]-2-yl]-N-(5-fluoropyrimidin-2-yl)acetamide] | < 10000 nM | 21 nM | – | –
13 | O=C(CN1C[C@@]2(C[C@@H]2F)c2c(ccc(C3CC3)c2F)C1=O)Nc1ncc(Cl)cn1 (single isomer, unassigned) [Example 229, 2-[(2′s,4r)-6-cyclopropyl-2′,5-difluoro-1-oxospiro[3H-isoquinoline-4,1′-cyclopropane]-2-yl]-N-(5-chloropyrimidin-2-yl)acetamide] | < 10000 nM | 32 nM | – | –
14 | O=C(CN1C[C@@]2(C[C@@H]2F)c2cc(C(F)(F)F)ccc2C1=O)Nc1ncc(F)cn1 (single isomer, unassigned) [Example 234, 2-[(2′s,4r)-2′-fluoro-1-oxo-6-(trifluoromethyl)spiro[3H-isoquinoline-4,1′-cyclopropane]-2-yl]-N-(5-fluoropyrimidin-2-yl)acetamide] | < 10000 nM | – | 78 nM | –
15 | O=C(CN1C[C@@]2(C[C@@H]2F)c2cc(C(F)(F)F)ccc2C1=O)Nc1ncc(F)cn1 (single isomer, unassigned) [Example 235, 2-[(2′s,4r)-2′-fluoro-1-oxo-6-(trifluoromethyl)spiro[3H-isoquinoline-4,1′-cyclopropane]-2-yl]-N-(5-fluoropyrimidin-2-yl)acetamide] | – | – | 850 nM | < 10000 nM
16 | N#Cc1cnc(NC(=O)CN2C[C@@]3(C[C@@H]3F)c3cc(C(F)(F)F)ccc3C2=O)nc1 (single isomer, unassigned) [Example 236, N-(5-cyanopyrimidin-2-yl)-2-[(2′s,4r)-2′-fluoro-1-oxo-6-(trifluoromethyl)spiro[3H-isoquinoline-4,1′-cyclopropane]-2-yl]acetamide] | < 10000 nM | – | 1120 nM | –
17 | N#Cc1cnc(NC(=O)CN2C[C@@]3(C[C@@H]3F)c3cc(C(F)(F)F)ccc3C2=O)nc1 (single isomer, unassigned) [Example 237, N-(5-cyanopyrimidin-2-yl)-2-[(2′s,4r)-2′-fluoro-1-oxo-6-(trifluoromethyl)spiro[3H-isoquinoline-4,1′-cyclopropane]-2-yl]acetamide] | – | – | 61 nM | < 10000 nM
18 | O=C(CN1C[C@@]2(C[C@@H]2F)c2cc(C(F)(F)F)ccc2C1=O)Nc1ncc(Cl)cn1 (single isomer, unassigned) [Example 238, N-(5-chloropyrimidin-2-yl)-2-[(2′s,4r)-2′-fluoro-1-oxo-6-(trifluoromethyl)spiro[3H-isoquinoline-4,1′-cyclopropane]-2-yl]acetamide] | < 10000 nM | – | 414 nM | –
19 | O=C(CN1C[C@@]2(C[C@@H]2F)c2cc(C(F)(F)F)ccc2C1=O)Nc1ncc(Cl)cn1 (single isomer, unassigned) [Example 239, N-(5-chloropyrimidin-2-yl)-2-[(2′s,4r)-2′-fluoro-1-oxo-6-(trifluoromethyl)spiro[3H-isoquinoline-4,1′-cyclopropane]-2-yl]acetamide] | – | – | 37 nM | < 10000 nM
